According to US20210246157A1, “CAMPTOTHECIN DERIVATIVES AND PREPARATION METHODS AND APPLICATIONS THEREOF” (priority 2018, published 2021):
≈ marks a conversion by molar mass, not a printed value. Where two headings read alike, the source gives them in different places.

Assays:
[1] = Solubility test, equilibrium method, UV-visible spectrophotometry; type: physicochemical; conditions: thermodynamic from solid
Procedure, shortened: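 Equilibrium solubility measured by UV-visible spectrophotometry. Reference solution of known concentration (C0) prepared in methanol; test concentration calculated as Cx=(Ax/A0)C0 from absorbance ratio of test to reference solution.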

[2] = test system: colon cancer cells SW-480; experiment: In vivo antitumor activity, tumor volume (Example 19); design: species or system mice; conditions: for Mouse Tumor Volume: 12.30 mg/kg i.v. once every three days, average, n = 6
[3] = In vivo antitumor activity study, mouse weight (Example 19); design: species or system mice; conditions: 12.30 mg/kg i.v. once every three days
tumor = experiment: Multi-dose in vivo antitumor activity, tumor volume (Example 20); design: species or system mice; conditions: for Mouse Tumor Volume: caudal vein once every 2 days
Description: (§1) The drugs are administered through the caudal veins of mice once every 2 days for a total of 7 times.
Tumor volume is measured every three days from day 0. The maximum diameter (a) of the tumor is measured first, and then the longest radial line (b) perpendicular to the maximum diameter is measured, using mm as unit. Tumor volume is calculated according to the following formula: […]

[4] = Multi-dose in vivo antitumor activity study, mouse weight (Example 20); design: species or system mice; conditions: caudal vein once every 2 days
Description: as §1
At the end of the treatment cycle, the orbital venous blood of the mice is collected for later blood routine test, the mice are killed by cervical dislocation method, and tumors are removed immediately and photographed. From day 0, the mice in each group are weighed every three days, and the weights are recorded. The weight average value of each group is calculated, and mouse weight variation curve is drawn according to statistical data. At the end of the treatment cycle, tumors are removed from anesthetized mice immediately and weighted, and the tumor weight of each group is recorded. The tumor inhibition rate (%) is calculated according to the following formula: […]

HCT-116 = experiment: Cytotoxicity test (MTT, 72 h); conditions: Homo sapiens, HCT-116, 72 h, read-out: 50% Inhibiting Concentration value (IC50)
Description: (§2) In order to investigate the antitumor activities of the compounds, a variety of tumor cell lines for test are selected. Cells at logarithmic growth period are inoculated in a 96-well plate overnight, then drugs with a certain gradient concentrations are added, and incubation is carried out in a cell culture chamber (5% CO2, 37° C.) for 72 h.

H1975 = experiment: Cytotoxicity test (MTT, 72 h); conditions: Homo sapiens, NCI-H1975, 72 h, read-out: 50% Inhibiting Concentration value (IC50)
Description: as §2

HepG2 = experiment: Cytotoxicity test (MTT, 72 h); conditions: Homo sapiens, HepG2, 72 h, read-out: 50% Inhibiting Concentration value (IC50)
Description: as §2

BGC-823 = experiment: Cytotoxicity test (MTT, 72 h); conditions: Homo sapiens, BGC-823, 72 h, read-out: 50% Inhibiting Concentration value (IC50)
Description: as §2

ECA-109 = experiment: Cytotoxicity test (MTT, 72 h); conditions: Homo sapiens, ECa-109, 72 h, read-out: 50% Inhibiting Concentration value (IC50)
Description: as §2

143B = experiment: Cytotoxicity test (MTT, 72 h); conditions: Homo sapiens, read-out: 50% Inhibiting Concentration value (IC50)
Description: as §2

Hela = experiment: Cytotoxicity test (MTT, 72 h); conditions: Homo sapiens, read-out: 50% Inhibiting Concentration value (IC50)
Description: as §2

TPC-1 = experiment: Cytotoxicity test (MTT, 72 h); conditions: Homo sapiens, TPC1, 72 h, read-out: 50% Inhibiting Concentration value (IC50)
Description: (§3) Cells at logarithmic growth period are inoculated in a 96-well plate overnight, then drugs with a certain gradient concentrations are added, and incubation is carried out in a cell culture chamber (5% CO2, 37° C.) for 72 h.

SKOV-3 = experiment: Cytotoxicity test (MTT, 72 h); conditions: Homo sapiens, SK-OV-3, 72 h, read-out: 50% Inhibiting Concentration value (IC50)
Description: as §3

PANC-1 = experiment: Cytotoxicity test (MTT, 72 h); conditions: Homo sapiens, PANC-1, 72 h, read-out: 50% Inhibiting Concentration value (IC50)
Description: as §3

[5] = day 0, high-dose group (H) 12.30 mg/kg
[6] = day 0, low-dose group (L) 3.075 mg/kg
[7] = day 0, medium-dose group (M) 6.15 mg/kg
[8] = day 3, high-dose group (H) 12.30 mg/kg
[9] = day 3, low-dose group (L) 3.075 mg/kg
[10] = day 3, medium-dose group (M) 6.15 mg/kg
[11] = day 6, high-dose group (H) 12.30 mg/kg
[12] = day 6, low-dose group (L) 3.075 mg/kg
[13] = day 6, medium-dose group (M) 6.15 mg/kg
[14] = day 9, high-dose group (H) 12.30 mg/kg
[15] = day 9, low-dose group (L) 3.075 mg/kg
[16] = day 9, medium-dose group (M) 6.15 mg/kg
[17] = day 12, high-dose group (H) 12.30 mg/kg
[18] = day 12, low-dose group (L) 3.075 mg/kg
[19] = day 12, medium-dose group (M) 6.15 mg/kg
[20] = day 15, high-dose group (H) 12.30 mg/kg
[21] = day 15, low-dose group (L) 3.075 mg/kg
[22] = day 15, medium-dose group (M) 6.15 mg/kg
[23] = day 18, high-dose group (H) 12.30 mg/kg
[24] = day 18, low-dose group (L) 3.075 mg/kg
[25] = day 18, medium-dose group (M) 6.15 mg/kg
[26] = day 21, high-dose group (H) 12.30 mg/kg
[27] = day 21, low-dose group (L) 3.075 mg/kg
[28] = day 21, medium-dose group (M) 6.15 mg/kg

For `CCc1c2c(nc3ccc(OC(=O)NCCOCc4cn(CCO[C@H]5O[C@@H](CO)[C@H](O)[C@@H](O)[C@@H]5O)nn4)cc13)-c1cc3c(c(=O)n1C2)COC(=O)[C@]3(O)CC` [Compound 67], the solubility ([1]; aqueous buffer, PBS pH 7.4, read-out: Solubility in PBS (pH = 7.4)) was 2.11 mg/mL (≈ 2750 µM), the solubility ([1]; aqueous with cosolvent or surfactant or cyclodextrin, 0.1% aqueous solution of Tween-80, read-out: Solubility in 0.1% Tween-80) was 1.48 mg/mL (≈ 1930 µM) and the solubility ([1]; saline or isotonic, normal saline, read-out: Solubility in Normal Saline (NS)) was 3.35 mg/mL (≈ 4370 µM). The solubility ([1]; water, read-out: Solubility in Water) was 1.26 mg/mL (≈ 1650 µM), the “Mouse Tumor Volume” value ([2]; day 0) was 227.31 mm^3 and the “Mouse Tumor Volume” value ([2]; day 3) was 126.54 mm^3. The “Mouse Tumor Volume” value ([2]; day 6) was 142.84 mm^3, the “Mouse Tumor Volume” value ([2]; day 9) was 104.75 mm^3 and the “Mouse Tumor Volume” value ([2]; day 12) was 73.72 mm^3. The “Mouse Tumor Volume” value ([2]; day 15) was 43.74 mm^3, the “Mouse Tumor Volume” value ([2]; day 18) was 12.46 mm^3 and the “Mouse Tumor Volume” value ([2]; day 21) was 11.38 mm^3. The “inhibition rates on colon cancer cell SW-480 compared with CPT-11 (in words)” value ([2]; dosage two-thirds of the molar fraction of CPT-11) was “significantly higher inhibition rates”, the “Mouse Weight” value ([3]; day 0) was 23.97 g and the “Mouse Weight” value ([3]; day 3) was 23.97 g. The “Mouse Weight” value ([3]; day 6) was 23.57 g, the “Mouse Weight” value ([3]; day 9) was 23.94 g and the “Mouse Weight” value ([3]; day 12) was 23.58 g. For the same compound, the “Mouse Weight” value ([3]; day 15) was 24.45 g, the “Mouse Weight” value ([3]; day 18) was 24.86 g and the “Mouse Weight” value ([3]; day 21) was 25.33 g. For the same compound, the “Mouse Tumor Volume” value (tumor; [5]) was 121.62 mm^3, the “Mouse Tumor Volume” value (tumor; [6]) was 125.58 mm^3 and the “Mouse Tumor Volume” value (tumor; [7]) was 161.01 mm^3. For the same compound, the “Mouse Tumor Volume” value (tumor; [8]) was 91.15 mm^3, the “Mouse Tumor Volume” value (tumor; [9]) was 194.43 mm^3 and the “Mouse Tumor Volume” value (tumor; [10]) was 168.50 mm^3. The “Mouse Tumor Volume” value (tumor; [11]) was 96.67 mm^3, the “Mouse Tumor Volume” value (tumor; [12]) was 197.42 mm^3 and the “Mouse Tumor Volume” value (tumor; [13]) was 208.68 mm^3. For the same compound, the “Mouse Tumor Volume” value (tumor; [14]) was 103.36 mm^3, the “Mouse Tumor Volume” value (tumor; [15]) was 278.06 mm^3 and the “Mouse Tumor Volume” value (tumor; [16]) was 220.90 mm^3. The “Mouse Tumor Volume” value (tumor; [17]) was 110.74 mm^3, the “Mouse Tumor Volume” value (tumor; [18]) was 420.38 mm^3 and the “Mouse Tumor Volume” value (tumor; [19]) was 295.90 mm^3. For the same compound, the “Mouse Tumor Volume” value (tumor; [20]) was 133.88 mm^3, the “Mouse Tumor Volume” value (tumor; [21]) was 498.90 mm^3 and the “Mouse Tumor Volume” value (tumor; [22]) was 378.20 mm^3. The “Mouse Tumor Volume” value (tumor; [23]) was 116.64 mm^3, the “Mouse Tumor Volume” value (tumor; [24]) was 587.60 mm^3 and the “Mouse Tumor Volume” value (tumor; [25]) was 404.02 mm^3. For the same compound, the “Mouse Tumor Volume” value (tumor; [26]) was 103.48 mm^3, the “Mouse Tumor Volume” value (tumor; [27]) was 624.45 mm^3 and the “Mouse Tumor Volume” value (tumor; [28]) was 394.44 mm^3. For the same compound, the “tumor inhibition effects of the high-dose groups compared with CPT-11 (in words)” value (tumor; high-dose groups, same dosage (10 mg/kg), p<0.001) was “better than that of positive control group CPT-11”, the “dose dependence of tumor inhibition (in words)” value (tumor; low, medium and high dose) was “dose-dependent” and the “Mouse Weight” value [4, 5] was 17.04 g. The “Mouse Weight” value [4, 6] was 16.18 g, the “Mouse Weight” value [4, 7] was 18.28 g and the “Mouse Weight” value [4, 8] was 16.15 g. The “Mouse Weight” value [4, 9] was 16.28 g, the “Mouse Weight” value [4, 10] was 17.29 g and the “Mouse Weight” value [4, 11] was 16.88 g. The “Mouse Weight” value [4, 12] was 15.76 g, the “Mouse Weight” value [4, 13] was 16.82 g and the “Mouse Weight” value [4, 14] was 16.57 g. The “Mouse Weight” value [4, 15] was 16.28 g, the “Mouse Weight” value [4, 16] was 17.18 g and the “Mouse Weight” value [4, 17] was 16.06 g. For the same compound, the “Mouse Weight” value [4, 18] was 16.03 g, the “Mouse Weight” value [4, 19] was 16.74 g and the “Mouse Weight” value [4, 20] was 16.32 g. The “Mouse Weight” value [4, 21] was 16.04 g, the “Mouse Weight” value [4, 22] was 15.82 g and the “Mouse Weight” value [4, 23] was 17.36 g. For the same compound, the “Mouse Weight” value [4, 24] was 16.17 g, the “Mouse Weight” value [4, 25] was 16.27 g and the “Mouse Weight” value [4, 26] was 16.78 g. For the same compound, the “Mouse Weight” value [4, 27] was 16.48 g, the “Mouse Weight” value [4, 28] was 16.84 g and the IC50 (HCT-116) was 0.235 µM. For the same compound, the IC50 (H1975) was 6.73 µM, the IC50 (HepG2) was 1.05 µM and the IC50 (BGC-823) was 0.209 µM. The IC50 (ECA-109) was 4.32 µM, the IC50 (143B) was 5.61 µM and the IC50 (Hela) was 2.91 µM. It also gave an IC50 (TPC-1) of 8.08 µM, an IC50 (SKOV-3) of 1.26 µM and an IC50 (PANC-1) of 2.91 µM.
